Columns and labels:
Assay in all cases: KINOMEscan competition binding
Settings in all cases: compound 10.0 µM
ABL2 (human) = ABL2 (human) (UniProt P42684)
ACVR1B (human) = ACVR1B (human) (UniProt P36896)
ACVR2A (human) = ACVR2A (human) (UniProt P27037)
ALK (human) = ALK (human) (UniProt Q9UM73)
CAMK4 (human) = CAMK4 (human) (UniProt Q16566)
CDK16 (human) = CDK16 (human) (UniProt Q00536)
CDK17 (human) = CDK17 (human) (UniProt Q00537)
CLK2 (human) = CLK2 (human) (UniProt P49760)
CRK2 (P.falciparum) = CRK2 (P.falciparum) (UniProt P61075)
CSNK1A1 (human) = CSNK1A1 (human) (UniProt P48729)
[1] = system: EGFR (human), P00533 [T790M/L858R]
EPHA1 (human) = EPHA1 (human) (UniProt P21709)
EPHB1 (human) = EPHB1 (human) (UniProt P54762)
EPHB4 (human) = EPHB4 (human) (UniProt P54760)
ERBB2 (human) = ERBB2 (human) (UniProt P04626)
LATS1 (human) = LATS1 (human) (UniProt O95835)
LRRK2 (human) = LRRK2 (human) (UniProt Q5S007)
MAK (human) = MAK (human) (UniProt P20794)
MAP2K6 (human) = MAP2K6 (human) (UniProt P52564)
MAP3K12 (human) = MAP3K12 (human) (UniProt Q12852)
MAP3K2 (human) = MAP3K2 (human) (UniProt Q9Y2U5)
MARK2 (human) = MARK2 (human) (UniProt Q7KZI7)
MINK1 (human) = MINK1 (human) (UniProt Q8N4C8)
MST4 (human) = MST4 (human) (UniProt Q9P289)
NEK5 (human) = NEK5 (human) (UniProt Q6P3R8)
NEK9 (human) = NEK9 (human) (UniProt Q8TD19)
NIM1 (human) = NIM1 (human) (UniProt Q8IY84)
PIP4K2C (human) = PIP4K2C (human) (UniProt Q8TBX8)
PKMYT1 (human) = PKMYT1 (human) (UniProt Q99640)
PRKCD (human) = PRKCD (human) (UniProt Q05655)
PRPF4B (human) = PRPF4B (human) (UniProt Q13523)
RIPK4 (human) = RIPK4 (human) (UniProt P57078)
RPS6KA1 KD1 (human) = RPS6KA1 KD1 (human) (UniProt Q15418)
SLK (human) = SLK (human) (UniProt Q9H2G2)
TAOK2 (human) = TAOK2 (human) (UniProt Q9UL54)
TEK (human) = TEK (human) (UniProt Q02763)
TNK1 (human) = TNK1 (human) (UniProt Q13470)
[2] = biological target: TYK2 JH1 catalytic (human) (UniProt P29597)
TYRO3 (human) = TYRO3 (human) (UniProt Q06418)
YES1 (human) = YES1 (human) (UniProt P07947)
YES1 (human), sequence (P07947 whole entry, looked up): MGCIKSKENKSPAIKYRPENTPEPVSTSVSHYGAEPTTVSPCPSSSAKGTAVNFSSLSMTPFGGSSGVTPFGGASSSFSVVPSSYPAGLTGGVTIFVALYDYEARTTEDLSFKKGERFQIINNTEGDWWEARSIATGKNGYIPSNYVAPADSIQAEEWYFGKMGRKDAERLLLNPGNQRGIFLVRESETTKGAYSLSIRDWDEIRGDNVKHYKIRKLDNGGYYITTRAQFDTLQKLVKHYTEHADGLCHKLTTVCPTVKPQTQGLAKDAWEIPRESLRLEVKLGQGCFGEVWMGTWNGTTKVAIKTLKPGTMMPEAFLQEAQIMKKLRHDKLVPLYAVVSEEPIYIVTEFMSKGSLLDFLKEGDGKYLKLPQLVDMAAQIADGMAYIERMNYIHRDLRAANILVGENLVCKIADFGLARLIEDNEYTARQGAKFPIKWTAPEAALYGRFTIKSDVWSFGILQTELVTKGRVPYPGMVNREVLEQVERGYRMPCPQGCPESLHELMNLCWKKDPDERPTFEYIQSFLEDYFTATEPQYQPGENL

ERBB2 (human), sequence (P04626 whole entry, looked up): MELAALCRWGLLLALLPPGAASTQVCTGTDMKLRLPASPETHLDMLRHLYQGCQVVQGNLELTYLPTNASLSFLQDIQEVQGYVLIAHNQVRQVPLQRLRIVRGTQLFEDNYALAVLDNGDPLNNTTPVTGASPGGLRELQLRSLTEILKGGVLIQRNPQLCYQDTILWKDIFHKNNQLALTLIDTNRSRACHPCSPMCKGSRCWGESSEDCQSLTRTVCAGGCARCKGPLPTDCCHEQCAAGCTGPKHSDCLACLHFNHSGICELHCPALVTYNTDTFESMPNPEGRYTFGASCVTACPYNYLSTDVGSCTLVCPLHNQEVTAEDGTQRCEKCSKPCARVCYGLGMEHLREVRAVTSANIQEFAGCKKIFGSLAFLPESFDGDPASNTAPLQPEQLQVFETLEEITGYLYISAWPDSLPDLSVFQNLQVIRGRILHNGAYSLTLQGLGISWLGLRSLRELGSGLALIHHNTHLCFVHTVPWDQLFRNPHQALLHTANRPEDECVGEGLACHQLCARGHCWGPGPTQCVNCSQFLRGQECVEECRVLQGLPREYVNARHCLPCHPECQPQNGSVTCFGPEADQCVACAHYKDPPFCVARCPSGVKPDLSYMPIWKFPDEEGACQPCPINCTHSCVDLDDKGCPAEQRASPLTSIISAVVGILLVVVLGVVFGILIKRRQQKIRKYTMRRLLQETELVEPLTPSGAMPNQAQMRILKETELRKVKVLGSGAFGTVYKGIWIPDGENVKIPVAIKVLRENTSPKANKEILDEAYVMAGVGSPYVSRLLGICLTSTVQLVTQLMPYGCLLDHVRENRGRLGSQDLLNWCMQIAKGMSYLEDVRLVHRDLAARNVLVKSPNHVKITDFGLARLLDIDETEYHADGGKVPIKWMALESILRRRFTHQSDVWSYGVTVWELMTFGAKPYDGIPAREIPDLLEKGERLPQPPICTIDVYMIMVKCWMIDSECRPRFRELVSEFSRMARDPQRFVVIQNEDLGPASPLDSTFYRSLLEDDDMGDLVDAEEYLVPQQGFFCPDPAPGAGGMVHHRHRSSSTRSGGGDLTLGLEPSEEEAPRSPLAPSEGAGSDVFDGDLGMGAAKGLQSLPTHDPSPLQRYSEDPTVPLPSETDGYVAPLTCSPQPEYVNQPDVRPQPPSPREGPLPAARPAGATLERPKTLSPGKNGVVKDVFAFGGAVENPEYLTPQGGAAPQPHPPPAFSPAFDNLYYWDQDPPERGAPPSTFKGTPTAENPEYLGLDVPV
TYRO3 (human), sequence (Q06418 whole entry, looked up): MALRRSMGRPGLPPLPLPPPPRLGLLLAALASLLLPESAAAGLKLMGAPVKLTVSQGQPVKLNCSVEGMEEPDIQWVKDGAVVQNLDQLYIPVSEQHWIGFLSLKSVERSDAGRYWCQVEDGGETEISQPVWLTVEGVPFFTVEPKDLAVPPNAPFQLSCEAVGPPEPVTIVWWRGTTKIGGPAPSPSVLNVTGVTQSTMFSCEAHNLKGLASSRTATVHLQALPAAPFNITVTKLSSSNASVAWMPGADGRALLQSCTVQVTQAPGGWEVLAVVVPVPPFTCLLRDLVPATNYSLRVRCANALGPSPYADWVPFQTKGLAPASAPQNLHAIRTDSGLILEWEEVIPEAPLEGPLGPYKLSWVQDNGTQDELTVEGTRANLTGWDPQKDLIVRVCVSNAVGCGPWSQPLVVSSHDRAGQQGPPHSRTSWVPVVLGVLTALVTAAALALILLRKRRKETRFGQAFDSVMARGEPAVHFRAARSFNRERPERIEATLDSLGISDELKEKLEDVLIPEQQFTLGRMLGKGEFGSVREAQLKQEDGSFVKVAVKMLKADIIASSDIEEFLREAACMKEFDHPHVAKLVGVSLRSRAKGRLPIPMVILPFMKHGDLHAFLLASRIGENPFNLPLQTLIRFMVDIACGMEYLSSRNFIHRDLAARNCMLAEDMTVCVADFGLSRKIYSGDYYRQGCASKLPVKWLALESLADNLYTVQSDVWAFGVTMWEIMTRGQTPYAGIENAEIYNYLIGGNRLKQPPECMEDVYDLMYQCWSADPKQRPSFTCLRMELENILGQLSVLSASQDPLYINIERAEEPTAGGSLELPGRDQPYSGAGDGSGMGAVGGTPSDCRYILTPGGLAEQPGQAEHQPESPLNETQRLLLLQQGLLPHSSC
PKMYT1 (human), sequence (Q99640 whole entry, looked up): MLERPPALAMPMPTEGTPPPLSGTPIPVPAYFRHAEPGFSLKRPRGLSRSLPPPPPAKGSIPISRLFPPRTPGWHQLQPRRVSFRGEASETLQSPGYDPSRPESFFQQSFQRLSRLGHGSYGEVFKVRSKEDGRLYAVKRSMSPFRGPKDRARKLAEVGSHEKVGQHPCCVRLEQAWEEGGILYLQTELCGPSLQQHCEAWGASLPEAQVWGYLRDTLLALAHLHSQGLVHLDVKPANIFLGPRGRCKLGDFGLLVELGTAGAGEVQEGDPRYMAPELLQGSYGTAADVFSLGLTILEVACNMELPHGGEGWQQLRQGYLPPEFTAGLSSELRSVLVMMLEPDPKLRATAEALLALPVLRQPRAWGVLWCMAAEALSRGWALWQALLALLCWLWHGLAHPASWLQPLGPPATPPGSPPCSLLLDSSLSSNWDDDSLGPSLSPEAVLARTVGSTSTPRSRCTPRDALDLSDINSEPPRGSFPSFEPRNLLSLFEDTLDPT
NIM1 (human), sequence (Q8IY84 whole entry, looked up): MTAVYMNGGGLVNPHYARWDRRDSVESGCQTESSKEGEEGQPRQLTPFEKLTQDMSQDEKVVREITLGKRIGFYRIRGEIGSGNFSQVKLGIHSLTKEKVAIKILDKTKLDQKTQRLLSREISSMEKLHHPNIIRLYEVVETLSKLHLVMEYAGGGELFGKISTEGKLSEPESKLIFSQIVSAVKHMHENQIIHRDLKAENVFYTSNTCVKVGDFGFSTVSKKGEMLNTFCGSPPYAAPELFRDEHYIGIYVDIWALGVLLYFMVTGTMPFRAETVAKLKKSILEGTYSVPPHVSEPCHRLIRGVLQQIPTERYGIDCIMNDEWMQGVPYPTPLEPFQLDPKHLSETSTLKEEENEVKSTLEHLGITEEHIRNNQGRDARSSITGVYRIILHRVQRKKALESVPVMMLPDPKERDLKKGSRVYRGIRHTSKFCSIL
MARK2 (human), sequence (Q7KZI7 whole entry, looked up): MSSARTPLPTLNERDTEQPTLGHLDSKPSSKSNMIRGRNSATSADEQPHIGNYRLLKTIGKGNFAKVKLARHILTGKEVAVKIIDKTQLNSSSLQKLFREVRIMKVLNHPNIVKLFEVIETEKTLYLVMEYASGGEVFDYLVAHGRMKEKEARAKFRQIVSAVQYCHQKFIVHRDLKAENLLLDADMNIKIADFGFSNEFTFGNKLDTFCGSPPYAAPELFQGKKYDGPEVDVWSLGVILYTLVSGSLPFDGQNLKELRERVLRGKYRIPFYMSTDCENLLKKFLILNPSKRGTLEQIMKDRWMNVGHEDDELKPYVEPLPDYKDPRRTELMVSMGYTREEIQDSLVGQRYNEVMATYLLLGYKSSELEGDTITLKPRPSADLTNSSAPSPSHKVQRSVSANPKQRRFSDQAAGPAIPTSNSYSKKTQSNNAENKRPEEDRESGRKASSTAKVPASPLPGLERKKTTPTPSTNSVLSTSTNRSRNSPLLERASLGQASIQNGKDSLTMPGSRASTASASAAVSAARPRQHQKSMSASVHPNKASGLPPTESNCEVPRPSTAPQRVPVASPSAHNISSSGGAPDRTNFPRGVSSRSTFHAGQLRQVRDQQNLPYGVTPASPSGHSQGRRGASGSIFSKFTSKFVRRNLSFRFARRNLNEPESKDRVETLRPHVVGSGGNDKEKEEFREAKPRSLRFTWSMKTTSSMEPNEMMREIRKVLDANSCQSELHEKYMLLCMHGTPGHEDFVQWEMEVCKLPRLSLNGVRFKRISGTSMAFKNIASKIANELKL
MAP3K2 (human), sequence (Q9Y2U5 whole entry, looked up): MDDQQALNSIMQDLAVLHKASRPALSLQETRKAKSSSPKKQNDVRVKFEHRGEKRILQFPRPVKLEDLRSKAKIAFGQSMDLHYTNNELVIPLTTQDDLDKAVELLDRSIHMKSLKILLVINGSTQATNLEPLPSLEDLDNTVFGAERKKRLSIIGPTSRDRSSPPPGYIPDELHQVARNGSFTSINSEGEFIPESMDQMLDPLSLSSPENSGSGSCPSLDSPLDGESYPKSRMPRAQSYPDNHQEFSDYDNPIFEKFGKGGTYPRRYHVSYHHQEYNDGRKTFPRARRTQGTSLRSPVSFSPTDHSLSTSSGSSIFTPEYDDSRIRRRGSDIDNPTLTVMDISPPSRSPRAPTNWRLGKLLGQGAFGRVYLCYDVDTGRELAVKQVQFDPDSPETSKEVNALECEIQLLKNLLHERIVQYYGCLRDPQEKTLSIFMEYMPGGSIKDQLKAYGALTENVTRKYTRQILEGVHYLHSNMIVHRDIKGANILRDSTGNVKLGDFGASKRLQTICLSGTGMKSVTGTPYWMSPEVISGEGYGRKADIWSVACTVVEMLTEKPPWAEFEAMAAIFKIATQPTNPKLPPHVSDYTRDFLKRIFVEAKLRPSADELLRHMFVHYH

Structure (SMILES) | kinase still bound, per cent of control (ABL2 (human)) | kinase still bound, per cent of control (ACVR1B (human)) | kinase still bound, per cent of control (ACVR2A (human)) | kinase still bound, per cent of control (ALK (human)) | kinase still bound, per cent of control (CAMK4 (human)) | kinase still bound, per cent of control (CDK16 (human)) | kinase still bound, per cent of control (CDK17 (human)) | kinase still bound, per cent of control (CLK2 (human)) | kinase still bound, per cent of control (CRK2 (P.falciparum)) | kinase still bound, per cent of control (CSNK1A1 (human)) | kinase still bound, per cent of control [1] | kinase still bound, per cent of control (EPHA1 (human)) | kinase still bound, per cent of control (EPHB1 (human)) | kinase still bound, per cent of control (EPHB4 (human)) | kinase still bound, per cent of control (ERBB2 (human)) | kinase still bound, per cent of control (LATS1 (human)) | kinase still bound, per cent of control (LRRK2 (human)) | kinase still bound, per cent of control (MAK (human)) | kinase still bound, per cent of control (MAP2K6 (human)) | kinase still bound, per cent of control (MAP3K12 (human)) | other results
NC(=O)Nc1cc(-c2cccc(F)c2)sc1C(=O)N[C@@H]1CCCNC1 | 0.2% | 28% | 2.2% | 0.05% | 0.15% | 79% | 84% | 0.65% | 100% | 0.5% | 5% | 1.4% | 1.6% | 6.4% | 0% | 11% | 4% | 100% | 3.8% | 9.7% | kinase still bound, per cent of control (MAP3K2 (human)): 0%; kinase still bound, per cent of control (MARK2 (human)): 0.9%; kinase still bound, per cent of control (MINK1 (human)): 1.6%; kinase still bound, per cent of control (MST4 (human)): 0.15%; kinase still bound, per cent of control (NEK5 (human)): 90%; kinase still bound, per cent of control (NEK9 (human)): 80%; kinase still bound, per cent of control (NIM1 (human)): 13%; kinase still bound, per cent of control (PIP4K2C (human)): 87%; kinase still bound, per cent of control (PKMYT1 (human)): 33%; kinase still bound, per cent of control (PRKCD (human)): 0.65%; kinase still bound, per cent of control (PRPF4B (human)): 7.4%; kinase still bound, per cent of control (RIPK4 (human)): 0%; kinase still bound, per cent of control (RPS6KA1 KD1 (human)): 11%; kinase still bound, per cent of control (SLK (human)): 0.05%; kinase still bound, per cent of control (TAOK2 (human)): 35%; kinase still bound, per cent of control (TEK (human)): 17%; kinase still bound, per cent of control (TNK1 (human)): 1.4%; kinase still bound, per cent of control [2]: 0%; kinase still bound, per cent of control (TYRO3 (human)): 3.2%; kinase still bound, per cent of control (YES1 (human)): 0.2%
C=CC(=O)Nc1cc(-n2c(=O)ccc3cnc4ccc(-c5cn[nH]c5)cc4c32)ccc1C | 86% | 100% | 76% | 100% | 100% | 97% | 92% | 1.6% | 100% | 81% | 18% | 94% | 94% | 100% | 42% | 100% | 38% | 94% | 53% | 76% | kinase still bound, per cent of control (MAP3K2 (human)): 88%; kinase still bound, per cent of control (MARK2 (human)): 83%; kinase still bound, per cent of control (MINK1 (human)): 31%; kinase still bound, per cent of control (MST4 (human)): 79%; kinase still bound, per cent of control (NEK5 (human)): 100%; kinase still bound, per cent of control (NEK9 (human)): 100%; kinase still bound, per cent of control (NIM1 (human)): 89%; kinase still bound, per cent of control (PIP4K2C (human)): 2.7%; kinase still bound, per cent of control (PKMYT1 (human)): 81%; kinase still bound, per cent of control (PRKCD (human)): 80%; kinase still bound, per cent of control (PRPF4B (human)): 84%; kinase still bound, per cent of control (RIPK4 (human)): 67%; kinase still bound, per cent of control (RPS6KA1 KD1 (human)): 87%; kinase still bound, per cent of control (SLK (human)): 100%; kinase still bound, per cent of control (TAOK2 (human)): 76%; kinase still bound, per cent of control (TEK (human)): 100%; kinase still bound, per cent of control (TNK1 (human)): 73%; kinase still bound, per cent of control [2]: 29%; kinase still bound, per cent of control (TYRO3 (human)): 100%; kinase still bound, per cent of control (YES1 (human)): 94%
O=C(Nc1cccc(Nc2ncc(Br)c(NCCc3cnc[nH]3)n2)c1)N1CCCC1 | 7.8% | 61% | 6.4% | 14% | 100% | 40% | 77% | 2.2% | 100% | 28% | 26% | 35% | 85% | 78% | 88% | 21% | 11% | 100% | 22% | 21% | kinase still bound, per cent of control (MAP3K2 (human)): 0.25%; kinase still bound, per cent of control (MARK2 (human)): 0.4%; kinase still bound, per cent of control (MINK1 (human)): 4.2%; kinase still bound, per cent of control (MST4 (human)): 0.4%; kinase still bound, per cent of control (NEK5 (human)): 0.5%; kinase still bound, per cent of control (NEK9 (human)): 4.6%; kinase still bound, per cent of control (NIM1 (human)): 0.05%; kinase still bound, per cent of control (PIP4K2C (human)): 2%; kinase still bound, per cent of control (PKMYT1 (human)): 100%; kinase still bound, per cent of control (PRKCD (human)): 12%; kinase still bound, per cent of control (PRPF4B (human)): 5.3%; kinase still bound, per cent of control (RIPK4 (human)): 0.3%; kinase still bound, per cent of control (RPS6KA1 KD1 (human)): 4.3%; kinase still bound, per cent of control (SLK (human)): 0.35%; kinase still bound, per cent of control (TAOK2 (human)): 5.3%; kinase still bound, per cent of control (TEK (human)): 12%; kinase still bound, per cent of control (TNK1 (human)): 1.4%; kinase still bound, per cent of control [2]: 0%; kinase still bound, per cent of control (TYRO3 (human)): 85%; kinase still bound, per cent of control (YES1 (human)): 31%
